One assay addresses T1, CDK4/cyclin D3 (Homo sapiens, UniProt P11802).
T1 construct: purchased Carna
Description: In vitro biochemical kinase activity assay for CDK4/cyclin D3 (HTRF). On the procedure:
II. In Vitro Biochemical Kinase Activity Assay for CDK4/Cyclin D3
The inhibitory effects of the compounds of the present invention on CDK4/cyclin D3 kinase activity were determined using an HTRF assay. The experimental process was as follows: • 1. The kinase reaction was carried out in a 384-well plate. 4.9 nM CDK4/cyclin D3 (Carna), 1 mM (or 80 µM) ATP, and 0.3 µM biotin-labeled substrate protein Rb-biotin (Cisbio) were incubated at 30°C for 90 min in a buffer system composed of 50 mM MgCl2, 1 mM DTT, and basal kinase buffer (Cisbio). • 2. The detection solution (Cisbio, containing reagents that specifically recognize phosphorylated Rb and Rb-biotin proteins, respectively) was added. The plate was then sealed with a film (to protect from light and volatilization) and incubated at 25°C for 60 min. • 3. The plate was transferred to an Envision plate reader to detect FRET signals. (The 665/615 ratio was calculated by reading the emission at 665 nm and 615 nM, respectively.) • 4. The IC50 values were determined by analyzing the inhibition at varying compound concentrations using Model 205 in the XLfit software.
Background: Time-resolved FRET reads energy transfer from a long-lived donor to a nearby acceptor.

For a further assay, the target named is T2, CDK6/cyclin D3 (Homo sapiens, UniProt Q00534).
T2 construct: purchased Carna
T2 sequence (Q00534 whole entry): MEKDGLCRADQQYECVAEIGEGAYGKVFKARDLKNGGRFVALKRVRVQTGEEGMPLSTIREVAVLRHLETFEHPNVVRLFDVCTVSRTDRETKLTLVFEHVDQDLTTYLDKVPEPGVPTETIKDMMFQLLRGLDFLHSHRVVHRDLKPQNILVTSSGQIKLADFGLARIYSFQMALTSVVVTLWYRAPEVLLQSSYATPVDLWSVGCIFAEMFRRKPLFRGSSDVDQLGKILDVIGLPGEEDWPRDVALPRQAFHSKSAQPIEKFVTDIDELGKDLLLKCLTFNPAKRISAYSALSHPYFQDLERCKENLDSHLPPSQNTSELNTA
T2 sequence (P30281 whole entry partner): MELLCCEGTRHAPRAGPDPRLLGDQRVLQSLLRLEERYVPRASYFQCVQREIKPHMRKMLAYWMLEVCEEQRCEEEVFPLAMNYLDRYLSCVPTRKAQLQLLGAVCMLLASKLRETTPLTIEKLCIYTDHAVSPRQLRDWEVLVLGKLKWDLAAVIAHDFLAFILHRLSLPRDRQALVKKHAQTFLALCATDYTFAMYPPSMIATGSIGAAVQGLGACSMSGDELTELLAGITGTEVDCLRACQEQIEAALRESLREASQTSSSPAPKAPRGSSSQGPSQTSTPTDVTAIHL
Description: In vitro biochemical kinase activity assay for CDK6/cyclin D3 (HTRF). On the procedure: III. In Vitro Biochemical Kinase Activity Assay for CDK6/Cyclin D3
The inhibitory effects of the compounds of the present invention on CDK6/cyclin D3 kinase activity were determined using an HTRF assay. The experimental process was as follows: 1. The kinase reaction was carried out in a 384-well plate. 0.02 nM CDK6/cyclin D3 (Carna), 1 mM (or 100 µM) ATP, and 0.3 µM biotin-labeled substrate protein Rb-biotin (Cisbio) were incubated at 30°C for 60 min in a buffer system composed of 5 mM MgCl2, 1 mM DTT, and basal kinase buffer (Cisbio). 2. The detection solution (Cisbio, containing reagents that specifically recognize phosphorylated Rb and Rb-biotin proteins, respectively) was added. The plate was then sealed with a film (to protect from light and volatilization) and incubated at 25°C for 60 min. 3. The plate was transferred to an Envision plate reader to detect FRET signals. (The 665/615 ratio was calculated by reading the emission at 665 nm and 615 nM, respectively.) 4. The IC50 values were determined by analyzing the inhibition at varying compound concentrations using Model 205 in the XLfit software.

The mark [1] stands for this setting: data marked with *: 1 mM ATP in Step 1.
The mark [2] stands for this setting: unmarked data: 80 µM ATP in Step 1.
The mark [3] stands for this setting: unmarked data: 100 µM ATP in Step 1.

Structures are written as SMILES.

T1 sequence (P11802 whole entry): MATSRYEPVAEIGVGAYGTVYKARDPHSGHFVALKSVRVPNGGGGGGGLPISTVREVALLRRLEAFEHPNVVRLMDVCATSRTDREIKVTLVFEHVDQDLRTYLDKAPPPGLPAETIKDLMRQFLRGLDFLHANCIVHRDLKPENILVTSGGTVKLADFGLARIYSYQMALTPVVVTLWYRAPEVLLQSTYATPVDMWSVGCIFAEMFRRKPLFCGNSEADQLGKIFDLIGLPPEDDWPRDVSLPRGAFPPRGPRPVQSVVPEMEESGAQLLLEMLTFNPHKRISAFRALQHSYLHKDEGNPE
T1 sequence (P30281 whole entry partner): as the sequence (P30281 whole entry partner) above

Take `CC(C)c1c(C#Cc2nc(N[C@@H]3CCN(S(C)(=O)=O)C[C@H]3O)ncc2Cl)cnn1C` [Example 33, (3R,4R)-4-((5-chloro-4-((5-isopropyl-1-methyl-1H-pyrazol-4-yl)ethynyl)pyrimidin-2-yl)amino)-1-(methanesulfonyl)piperidin-3-ol]: the IC50 (in general, the concentration at which inhibition is half-maximal) at CDK4/cyclin D3 (setting [1]) was 1.35 nM; at CDK6/cyclin D3 (setting [1]) it was 10.3 nM.
On the same counts, the results for `CC(C)n1c(C#Cc2nc(N[C@@H]3CCOC[C@H]3O)ncc2Cl)cnc1CN1CC(C)(O)C1` [Example 38, 1-((5-((5-chloro-2-(((3 S,4R)-3-hydroxytetrahydro-2H-pyran-4-yl)amino)pyrimidin-4-yl)ethynyl)-1-isopropyl-1H-imidazol-2-yl)methyl)-3-methylazetidin-3-ol] are 172 nM and 2120 nM.
As for `CC(C)c1nn(C)cc1C#Cc1nc(N[C@@H]2CCOC[C@H]2O)ncc1Cl` [Example 54, (3 S,4R)-4-((5-chloro-4-((3-isopropyl-1-methyl-1H-pyrazol-4-yl)ethynyl)pyrimidin-2-yl)amino)tetrahydro-2H-pyran-3-ol], the IC50 worked out at 59 nM at CDK4/cyclin D3 (setting [2]) and 164 nM at CDK6/cyclin D3 (setting [3]).
The like results for `CC(C)c1c(C#Cc2nc(Nc3ccc(C4CCN(C)CC4)cn3)ncc2F)cnn1C` [Example 59, 5-fluoro-4-((5-isopropyl-1-methyl-1H-pyrazol-4-yl)ethynyl)-N-(5-(1-methylpiperidin-4-yl)pyridin-2-yl)pyrimidin-2-amine] were, in that order, 9.64 nM and 38.3 nM.
The like results for `CC(C)n1c(C#Cc2nc(N[C@@H]3CCNC[C@H]3O)ncc2Cl)cnc1C(C)(C)O` [Example 60, (3R,4R)-4-((5-chloro-4-((2-(2-hydroxypropan-2-yl)-1-isopropyl-1H-imidazol-5-yl)ethynyl)pyrimidin-2-yl)amino)piperidin-3-ol] were, in that order, 47.6 nM and 162 nM.
On the same counts, the results for `CC(C)c1c(C#Cc2nc(N[C@@H]3CCOC[C@H]3O)ncc2Cl)cnn1CC(C)(C)O` [Example 64, (3 S,4R)-4-((5-chloro-4-((1-(2-hydroxy-2-methylpropyl)-5-isopropyl-1H-pyrazol-4-yl)ethynyl)pyrimidin-2-yl)amino)tetrahydro-2H-pyran-3-ol] are 13.2 nM and 132 nM.
As to `CC(C)c1nn(CC(C)(C)O)cc1C#Cc1nc(N[C@@H]2CCOC[C@H]2O)ncc1Cl` [Example 65, (3 S,4R)-4-((5-chloro-4-((1-(2-hydroxy-2-methylpropyl)-3-isopropyl-1H-pyrazol-4-yl)ethynyl)pyrimidin-2-yl)amino)tetrahydro-2H-pyran-3-ol], the IC50 at CDK4/cyclin D3 (setting [2]) worked out at 119 nM; against CDK6/cyclin D3 (setting [3]), 1200 nM.
The like results for `CC(C)n1c(C#Cc2nc(Nc3ccc(N4CCN(C)CC4)cn3)ncc2Cl)cnc1C(C)(C)O` [Example 66, 2-(5-((5-chloro-2-((5-(4-methylpiperazin-1-yl)pyridin-2-yl)amino)pyrimidin-4-yl)ethynyl)-1-isopropyl-1H-imidazol-2-yl)propan-2-ol] were, in that order, 1.03 nM and 1.9 nM.
The like results for `CCN1CCN(C(=O)c2ccc(Nc3ncc(Cl)c(C#Cc4cnc(C(C)(C)O)n4C(C)C)n3)nc2)CC1` [Example 67, (6-((5-chloro-4-((2-(2-hydroxypropan-2-yl)-1-isopropyl-1H-imidazol-5-yl)ethynyl)pyrimidin-2-yl)amino)pyridin-3-yl)(4-ethylpiperazin-1-yl)methanone] were, in that order, 1.17 nM and 5.88 nM.
Turning to `CC(C)n1c(C#Cc2nc(N[C@@H]3CCOC[C@H]3O)ncc2Cl)cnc1C1CCCN1` (stereo partly drawn) [Example 68, (3 S,4R)-4-((5-chloro-4-((1-isopropyl-2-(pyrrolidin-2-yl)-1H-imidazol-5-yl)ethynyl)pyrimidin-2-yl)amino)tetrahydro-2H-pyran-3-ol], the IC50 came out at 76.7 nM against CDK4/cyclin D3 (setting [1]) and 2600 nM against CDK6/cyclin D3 (setting [1]).
The like results for `CCN1CCN(Cc2ccc(Nc3ncc(Cl)c(C#Cc4cnn(C)c4C(C)C)n3)nc2)CC1` [Example 69, 5-Chloro-N-(5-((4-ethylpiperazin-1-yl)methyl)pyridin-2-yl)-4-((5-isopropyl-1-methyl-1H-pyrazol-4-yl)ethynyl)pyrimidin-2-amine] were, in that order, 4.71 nM and 38.4 nM.
Regarding `CCN1CCN(Cc2ccc(Nc3ncc(F)c(C#Cc4cnn(C)c4C(C)C)n3)nc2)CC1` [Example 70, N-(5-((4-ethylpiperazin-1-yl)methyl)pyridin-2-yl)-5-fluoro-4-((5-isopropyl-1-methyl-1H-pyrazol-4-yl)ethynyl)pyrimidin-2-amine], the figures for the IC50 on CDK4/cyclin D3 (setting [1]) and against CDK6/cyclin D3 (setting [1]) were 15.1 nM and 131 nM, respectively.
The like results for `CCN1CC2(C1)CN(c1ccc(Nc3ncc(Cl)c(C#Cc4cnc(C(C)(C)O)n4C(C)C)n3)nc1)C2` [Example 71, 2-(5-((5-chloro-2-((5-(6-ethyl-2,6-diazaspiro[3.3]heptan-2-yl)pyridin-2-yl)amino)pyrimidin-4-yl)ethynyl)-1-isopropyl-1H-imidazol-2-yl)propan-2-ol] were, in that order, 2.52 nM and 6.31 nM.
On the same counts, the results for `CC(C)n1c(C#Cc2nc(N[C@@H]3CCOC[C@H]3O)ncc2Cl)cnc1CN1[C@H](C)COC[C@@H]1C` [Example 72, (3S,4R)-4-((5-chloro-4-((2-(((3R,5S)-3,5-dimethylmorpholino)methyl)-1-isopropyl-1H-imidazol-5-yl)ethynyl)pyrimidin-2-yl)amino)tetrahydro-2H-pyran-3-ol] are 17 nM and 263 nM.
The like results for `CC(C)n1c(C#Cc2nc(Nc3ccc(C4CCN(C)CC4)cn3)ncc2F)cnc1C(C)(C)O` [Example 73, 2-(5-((5-fluoro-2-((5-(1-methylpiperidin-4-yl)pyridin-2-yl)amino)pyrimidin-4-yl)ethynyl)-1-isopropyl-1H-imidazol-2-yl)propan-2-ol] were, in that order, 6.43 nM and 26.7 nM.
As for `CC(C)n1c(C#Cc2nc(N[C@@H]3CCOC[C@H]3O)ncc2Cl)cnc1CN1[C@@H](C)COC[C@@H]1C` [Example 74, (3 S,4R)-4-((5-chloro-4-((2-(((3 S,5 S)-3,5-dimethylmorpholino)methyl)-1-isopropyl-1H-imidazol-5-yl)ethynyl)pyrimidin-2-yl)amino)tetrahydro-2H-pyran-3-ol], the IC50 against CDK4/cyclin D3 (setting [1]) was found to be 20.1 nM; on CDK6/cyclin D3 (setting [1]), 341 nM.
With `CC(C)n1c(C#Cc2nc(N[C@@H]3CCOC[C@H]3O)ncc2Cl)cnc1CN1CCC[C@H](O)C1` [Example 75, (S)-1-((5-((5-chloro-2-(((3 S,4R)-3-hydroxytetrahydro-2H-pyran-4-yl)amino)pyrimidin-4-yl)ethynyl)-1-isopropyl-1H-imidazol-2-yl)methyl)piperidin-3-ol], the half-maximal inhibitory concentration (IC50) is 21.2 nM against CDK4/cyclin D3 (setting [1]) and 1160 nM at CDK6/cyclin D3 (setting [1]).
On the same counts, the results for `CCN1CCC(c2ccc(Nc3ncc(Cl)c(C#Cc4cnc(C(C)(C)O)n4C(C)C)n3)nc2)CC1` [Example 76, 2-(5-((5-chloro-2-((5-(1-ethylpiperidin-4-yl)pyridin-2-yl)amino)pyrimidin-4-yl)ethynyl)-1-isopropyl-1H-imidazol-2-yl)propan-2-ol] are 2.9 nM and 6.53 nM.
On the same counts, the results for `CCN1CCN(Cc2ccc(Nc3cc(C#Cc4cnc(C(C)(C)O)n4C(C)C)c(Cl)cn3)nc2)CC1` [Example 77, 2-(5-((5-chloro-2-((5-((4-ethylpiperazin-1-yl)methyl)pyridin-2-yl)amino)pyridin-4-yl)ethynyl)-1-isopropyl-1H-imidazol-2-yl)propan-2-ol] are 1.62 nM and 5.94 nM.
For `CCN1CC2(C1)CN(c1ccc(Nc3ncc(F)c(C#Cc4cnn(C)c4C(C)(C)O)n3)nc1)C2` [Example 83, 2-(4-((2-((5-(6-ethyl-2,6-diazaspiro[3.3]heptan-2-yl)pyridin-2-yl)amino)-5-fluoropyrimidin-4-yl)ethynyl)-1-methyl-1H-pyrazol-5-yl)propan-2-ol], the IC50 at CDK4/cyclin D3 (setting [1]) was 2860 nM.
On the same count and under the same terms, then `CC(C)n1c(C#Cc2nc(N[C@@H]3CCC[C@@H](C(=O)N(C)C)C3)ncc2Cl)cnc1C(C)(C)O` [Example 96, (1R,3R)-3-((5-chloro-4-((2-(2-hydroxypropan-2-yl)-1-isopropyl-1H-imidazol-5-yl)ethynyl)pyrimidin-2-yl)amino)-N,N-dimethylcyclohexane-1-carboxamide], with 3290 nM; and `CC(C)n1c(C#Cc2nc(N[C@@H]3CCOC[C@H]3O)ncc2F)cnc1CN1CCC[C@H](O)C1` [Example 102, (S)-1-((5-((5-fluoro-2-(((3 S,4R)-3-hydroxytetrahydro-2H-pyran-4-yl)amino)pyrimidin-4-yl)ethynyl)-1-isopropyl-1H-imidazol-2-yl)methyl)piperidin-3-ol], with 1040 nM.

These data come from EP4782445A1, “CDK KINASE INHIBITOR AND USE THEREOF” (Abbisko Therapeutics Co., Ltd., priority 2023, dated 2025).
